Experiment [1] has as its target T1, Rsm22 (Saccharomyces cerevisiae, UniProt P36056).
T1 construct: native yeast mtSSU assembly intermediates; untagged Rsm22 in Ccm1-purified states 1 and 2, C-terminal linker-TEV-alfa-3C-mCherry tag (cleaved) in state 3
T1 sequence (P36056 16-628): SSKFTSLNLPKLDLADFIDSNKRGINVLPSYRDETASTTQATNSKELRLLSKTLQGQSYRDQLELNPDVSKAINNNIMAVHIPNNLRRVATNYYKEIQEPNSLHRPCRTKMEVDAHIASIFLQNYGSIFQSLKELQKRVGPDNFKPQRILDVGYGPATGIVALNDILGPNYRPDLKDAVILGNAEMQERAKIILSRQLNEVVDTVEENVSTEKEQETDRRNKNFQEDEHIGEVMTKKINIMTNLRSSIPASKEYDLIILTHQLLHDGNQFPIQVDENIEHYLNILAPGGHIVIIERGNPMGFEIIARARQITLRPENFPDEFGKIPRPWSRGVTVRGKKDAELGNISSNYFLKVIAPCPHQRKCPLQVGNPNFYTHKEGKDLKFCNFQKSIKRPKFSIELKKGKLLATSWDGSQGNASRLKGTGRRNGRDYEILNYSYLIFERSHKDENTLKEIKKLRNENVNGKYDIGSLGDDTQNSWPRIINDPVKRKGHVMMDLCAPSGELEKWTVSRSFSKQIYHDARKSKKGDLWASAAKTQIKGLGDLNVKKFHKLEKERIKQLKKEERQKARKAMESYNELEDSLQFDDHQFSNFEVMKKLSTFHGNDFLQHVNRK
Nature of the experiment: cryo-EM structure of native mtSSU assembly intermediates. To be noted: architectural cofactor; Rsm22 bound to pre-mtSSU. It counts as binding.

For experiment [2], the target named is T2, METTL17 (Homo sapiens, UniProt Q9H7H0).
T2 construct: endogenous METTL17 with C-terminal linker-twinStrep-FLAG-10xHis-TEV-SPOT-3C-GFP tag, eluted with 3C protease
T2 sequence (Q9H7H0 28-456): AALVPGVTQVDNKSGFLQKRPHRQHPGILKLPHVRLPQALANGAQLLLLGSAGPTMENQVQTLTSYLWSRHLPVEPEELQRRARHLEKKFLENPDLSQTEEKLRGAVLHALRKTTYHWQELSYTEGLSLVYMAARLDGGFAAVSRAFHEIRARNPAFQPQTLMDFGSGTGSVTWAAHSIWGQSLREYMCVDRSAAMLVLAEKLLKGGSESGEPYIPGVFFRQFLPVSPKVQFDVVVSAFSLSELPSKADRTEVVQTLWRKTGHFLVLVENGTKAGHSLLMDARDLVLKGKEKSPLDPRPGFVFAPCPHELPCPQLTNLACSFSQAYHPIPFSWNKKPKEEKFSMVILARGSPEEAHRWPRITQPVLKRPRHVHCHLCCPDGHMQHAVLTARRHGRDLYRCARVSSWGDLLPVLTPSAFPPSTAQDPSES
The description is as above. Type of experiment: binding. To be noted: architectural cofactor; METTL17 bound to pre-mtSSU.

Molecules are shown by their SMILES.

This is an account of results in publication PMC9892005, “Principles of mitoribosomal small subunit assembly in eukaryotes” (Nature, 2022).

For `[S]12[Fe]3[S]4[Fe]1[S]1[Fe]2[S]3[Fe]41` [Fe4S4 cluster], the “cryo-EM structure of native mtSSU assembly intermediates” value in experiment [1] and in experiment [2] was “identified an Fe4S4 cluster as an architectural cofactor of the Rsm22 (METTL17) protein family” throughout.
